{
  "source": "patent US20100184680A1",
  "about": "“THERAPEUTIC USES OF B-TYPE NATRIURETIC PEPTIDE AND HUMAN GROWTH HORMONE 1-43” (priority 2007, published 2010)",
  "key": {"HIV-1IIIB": {"test_system": "HIV-1IIIB", "assay": "HIV-1 antiviral assay in CEM-SS cells"}, "HCMV strain AD169": {"test_system": "HCMV strain AD169", "assay": "HCMV plaque formation assay in MRC-5 cells", "format": "cell-based"}, "[1]": {"test_system": "isolated buffer-perfused and ventilated rabbit lung", "assay": "Isolated ventilated and buffer perfused lung model", "method": "The isolated buffer-perfused and ventilated rabbit lung model is established for the investigation of the lung circulation, parenchyma, bronchial system and metabolic processes. Lungs are prepared from intact animals; the lungs are artificially ventilated and blood-free perfused. This model allows the study of pathophysiologic aspects under different conditions. Isolation of the intact lung enables observation of vasoreactivity, ventilation pressures and gas exchange avoiding humoral, central or metabolic influence. Lungs were perfused with test peptide BNP using a pulsatile flow roller pump in a closed system with recirculating buffer fluid. A rabbit ventilator enables the artificial ventilation with room air/carbon dioxide-mixture (CO2). Parameters continuosly measured include lung artery and left atrial pressure and ventilation pressure. Registration of lung weight gain serves as a parameter for development of lung edema. Samples of buffer fluid can be taken through the catheters.\nRabbits (New Zealand white bastards) of either sex, weighing 2.2-2.5 kg were anesthetized, using ketamine (Ketamin Inresa®, Inresa, Freiburg, Germany) and xylazine (Rompun®, Bayer, Leverkusen, Germany). Animals were anticoagulated with heparin (1000 U/kg body weight). After tracheotomy artificial ventilation was started with room air using a Havard respirator (tidal volume 8-12 ml/kg, frequency 30 breaths/min). Midsternal thoracotomy followed in a deep analgosedation and catheters were placed into the pulmonary artery and the left atrium. Lungs were perfused with sterile Krebs-Henseleit hydroxyethylamylopectine buffer (120 mM NaCl, 4.3 mM KCl, 1.1 mM KH2PO4, 25 mM NaHCO3, 2.4 mM CaCl2, 1.3 mM […], 2.4 g/L glucose) and 2.5% hydroxyethylamylopectine (mol weight 200,000) as an oncotic agent (Serag Wiesner, Naila, Germany). All concentrations are given as the final concentration in the buffer fluid.\nThe isolated lungs were freely suspended from an electronic force transducer (Transducer U1, Hottinger Baldwin Messtechnik, Darmstadt, Germany) in a humidified and tempered glas thorax. Perfusion was performed at a constant rate of 120 mL/min in a recirculating manner (total perfusate volume 300 mL), and the whole system was heated to 38° C. Room air, supplemented with ˜4% carbon dioxide was used for artificial ventilation to reach a pH of 7.34 to 7.38 and a positive end exspiratory pressure (PEEP) was set at 1-1.3 mmHg. Pressure in left atrium was set at 1.2 mmHg (reference point hilum). Pulmonary artery and ventilation pressures were continuously measured and are shown as mean values.\nIndependent variables in all experiments were: constant perfusion flow rate of 120 ml/min and a ventilator setting (tidal volume 8-12 ml/kg; frequency 30 breaths/min). The main dependent variables included: pressures in trachea and artery which were continuously measured. Lung weight gain as a parameter of lung edema formation was also continuously registered. Under constant flow condition, elevation of the artery pressure directly reflected an increase in vascular resistance.\nThromboxan A2 mimetic U46619 induces vasoconstriction: Lung artery pressure under resting conditions is about 8 mmHg. Slow titration, followed by continuous infusion of the thromboxan A2 mimetic U46619 causes precapillary vasoconstriction of about 25 mmHg. An observation period of up to 3 hours is accessible for further intervention.\nEndothelin 1 (ET1) vasoconstricts the lung vasculature and leads to increased pressure in the isolated rabbit lung in a biphasic matter that is dose dependent. Infusion or inhalation of the test peptide of the invention is tested for therapeutic effect of lowering the vasoconstriction.\nAll data are shown as mean and standard error of mean (SEM). For primary data analysis, comparison was performed between the U46619 group and intravascular administered peptide. […]"}, "Human A549 cells": {"test_system": "Human A549 cells", "assay": "Apoptosis prevention assay (C2 ceramide, Annexin-5)", "format": "cell-based", "settings": "10 micrograms per ml, 30 min pretreatment", "quoted_text": "Human A549 cells (carcinomic human alveolar basal epithelial cells) were utilized in the experiments employing the Annexin-5 apoptosis assay. […] A549 cells were pretreated for 30 min with test peptides—10 micrograms per ml—followed by the exposure to C2 ceramide."}, "Interleukin-4 (IL-4)": {"test_system": "Interleukin-4 (IL-4)", "assay": "Th1/Th2 cytokine profiling assay: IL-4", "format": "cell-based, Balb/c mice", "settings": "10 micrograms per ml; Ovalbumin restimulation; 72 hours", "from_the_text": "(§1) The Balb/c mice (originated in 1923, it is a popular strain and is used in many different research disciplines. Also classified as an inbred from the production of 20 or more successive brother-sister matings, the Balb/c mouse is albino and small in size) were immunized on Days 1, 15, and 29 with Ovalbumin (Ovalbumin is the main protein found in egg white, commonly used to stimulate an immunological reaction in test animals) in PBS (5 micrograms/injection). On day 50, spleens of the mice were harvested (3 weeks after last boost with Ovalbumin). Cells were cultured (2×10^5/well in triplicate) and incubated with culture medium or test peptides—10 micrograms per ml—for 30 min. Thereafter, additional Ovalbumin was added to the cells at 10 micrograms/ml for in vitro restimulation of the cells. 72 hours later, cell supernatants were harvested and assayed using the Becton Dickinson Mouse Th1/Th2 Cytokine CBA Kit."}, "HUVEC": {"test_system": "HUVEC", "assay": "Endothelial tube formation assay", "format": "cell-based, human", "settings": "10 micrograms per ml, 20 hours", "text": "Positive control was vehicle only."}, "[2]": {"test_system": "Tumor Necrosis Factor-α (TNF-α)", "assay": "Th1/Th2 cytokine profiling assay: TNF-α", "format": "cell-based, Balb/c mice", "settings": "10 micrograms per ml; Ovalbumin restimulation; 72 hours", "from_the_text": "(§2) The Balb/c mice (originated in 1923, it is a popular strain and is used in many different research disciplines. Also classified as an inbred from the production of 20 or more successive brother-sister matings, the Balb/c mouse is albino and small in size) were immunized on Days 1, 15, and 29 with Ovalbumin (Ovalbumin is the main protein found in egg white, commonly used to stimulate an immunological reaction in test animals) in PBS (5 micrograms/injection). On day 50, spleens of the mice were harvested (3 weeks after last boost with Ovalbumin). Cells were cultured (2×10^5/well in triplicate) and incubated with culture medium or test peptides—10 micrograms per ml—for 30 min. Thereafter, additional Ovalbumin was added to the cells at 10 micrograms/ml for in vitro restimulation of the cells. 72 hours later, cell supernatants were harvested and assayed using the Becton Dickinson Mouse Th1/Th2 Cytokine CBA Kit. This kit can be used to measure Interleukin-2 (IL-2), Interleukin-4 (IL-4), Interleukin-5 (IL-5), Interferon-γ (IFN-γ), and Tumor Necrosis Factor-α (TNF-α) protein levels in a single sample. The kit performance has been optimized for analysis of physiologically relevant concentrations (pg/ml levels) of specific cytokine proteins in tissue culture supernatants and serum samples."}, "Interferon-γ (IFN-γ)": {"test_system": "Interferon-γ (IFN-γ)", "assay": "Th1/Th2 cytokine profiling assay: IFN-γ", "format": "cell-based, Balb/c mice", "settings": "10 micrograms per ml; Ovalbumin restimulation; 72 hours", "from_the_text": "as §2"}, "[3]": {"test_system": "Primary Human endothelial cells (HUVEC)", "assay": "Endothelial cell migration assay", "format": "cell-based", "settings": "10 micrograms per ml, 22 hours"}, "Interleukin-5 (IL-5)": {"test_system": "Interleukin-5 (IL-5)", "assay": "Th1/Th2 cytokine profiling assay: IL-5", "format": "cell-based, Balb/c mice", "settings": "10 micrograms per ml; Ovalbumin restimulation; 72 hours", "from_the_text": "as §1"}, "Interleukin-2 (IL-2)": {"test_system": "Interleukin-2 (IL-2)", "assay": "Th1/Th2 cytokine profiling assay: IL-2", "format": "cell-based, Balb/c mice", "settings": "10 micrograms per ml; Ovalbumin restimulation; 72 hours", "from_the_text": "as §2"}, "cGMP": {"test_system": "cGMP", "assay": "Cyclic GMP measurement in the rabbit lung model", "settings": "buffer samples from left atrial catheter; RIA; administration dependent", "method": "Buffer samples were drawn from the left atrial catheter in the isolated buffer-perfused and ventilated rabbit lung model at predefined time points, every 30 minutes in the control group and every 15 minutes in the intervention groups. Samples were immediately frozen and stored at −80° Celsius. Analysis of cGMP was performed using a commercially available radio immuno (RIA) assay kit."}, "[4]": {"settings": "increasing doses of 5, 10 and 100 nM, isolated rabbit lung"}},
  "note": "Bridge positions count the residues as written; N and C are the ends. Ends that are not written are not given here.",
  "data": [
    {"molecule": "Cc1cn([C@H]2C[C@H](N=[N+]=[N-])[C@@H](CO)O2)c(=O)[nH]c1=O", "note": "[AZT]", "values": [
      {"measurement": "antiviral activity of positive control compounds (HIV-1)", "setting": "HIV-1IIIB", "value": "expected levels of antiviral activity"}
    ]},
    {"molecule": "Nc1nc(O)c2ncn(COC(CO)CO)c2n1", "note": "[Ganciclovir]", "values": [
      {"measurement": "antiviral activity of positive control compound (HCMV)", "setting": "HCMV strain AD169", "value": "expected levels of antiviral activity"}
    ]},
    {"molecule": "CCCCC[C@H](O)/C=C/[C@@H]1[C@@H](C/C=C\\CCCC(=O)O)[C@H]2CO[C@@H]1C2", "note": "[U46619, reference compound]", "values": [
      {"measurement": "vasoconstriction (lung artery pressure), plateau at the end of the experiment", "setting": "[1]; continuous infusion, after another 135 minutes", "value": "25.53±0.9", "unit": "mmHg"},
      {"measurement": "vasoconstriction (lung artery pressure) provoked by continuous infusion", "setting": "[1]; within 15 minutes, isolated rabbit lung", "value": "25.5±0.26", "unit": "mmHg"}
    ]},
    {"molecule": "CC(C)(C)NC(=O)[C@@H]1CN(Cc2cccnc2)CCN1C[C@@H](O)C[C@@H](Cc1ccccc1)C(=O)N[C@H]1c2ccccc2C[C@H]1O", "note": "[indinavir]", "values": [
      {"measurement": "antiviral activity of positive control compounds (HIV-1)", "setting": "HIV-1IIIB", "value": "expected levels of antiviral activity"}
    ]},
    {"molecule": "Endothelin 1 (CSCSSLMDKECVYFCHLDIIW; disulfide 1-15, 3-11; ends not checked; UniProt P05305 53-73, looked up) [ET1, Endothelin 1 (ET1) vasoconstricts the lung vasculature, reference compound]", "values": [
      {"measurement": "vasoconstriction (lung artery pressure), stable plateau phase", "setting": "[1]; administration into the buffer fluid, rise over 60 minutes", "value": "27±2.16", "unit": "mmHg"}
    ]},
    {"molecule": "Phe-Pro-Thr-Ile-Pro-Leu-Ser-Arg-Leu-Phe-Asp-Asn-Ala-Met-Leu-Arg-Ala-His-Arg-Leu-His-Gln-Leu-Ala-Phe-Asp-Thr-Tyr-Gln-Glu-Phe-Glu-Glu-Ala-Tyr-Ile-Pro-Lys-Glu-Gln-Lys-Tyr-Ser-OH (FPTIPLSRLFDNAMLRAHRLHQLAFDTYQEFEEAYIPKEQKYS-OH) [Peptide 2, Human growth Hormone (1-43); HGH]", "values": [
      {"measurement": "prevented (reduced) ceramide-induced apoptosis on human lung cells", "setting": "Human A549 cells", "value": 18.4, "unit": "%"},
      {"measurement": "IL-4 spleen cells; TH2 response (% of control)", "setting": "Interleukin-4 (IL-4)", "value": "184.6 % of control"},
      {"measurement": "inhibited the tube formation of endothelial cells", "setting": "HUVEC", "value": 19, "unit": "%"},
      {"measurement": "TNF-a spleen cells; TH1 response (% of control)", "setting": "[2]", "value": "94.0 % of control"},
      {"measurement": "IFNγ spleen cells; TH1 response (% of control)", "setting": "Interferon-γ (IFN-γ)", "value": "60.3 % of control"},
      {"measurement": "induced the migration of human endothelial cells", "setting": "[3]", "value": 14, "unit": "%"},
      {"measurement": "IL-5 spleen cells; TH2 response (% of control)", "setting": "Interleukin-5 (IL-5)", "value": "78.2 % of control"},
      {"measurement": "IL-2 spleen cells (% of control)", "setting": "Interleukin-2 (IL-2)", "value": "132.2 % of control"}
    ]},
    {"molecule": "Ser-Pro-Lys-Met-Val-Gln-Gly-Ser-Gly-Cys-Phe-Gly-Arg-Lys-Met-Asp-Arg-Ile-Ser-Ser-Ser-Ser-Gly-Leu-Gly-Cys-Lys-Val-Leu-Arg-Arg-His [Peptide 1]", "values": [
      {"measurement": "arterial pressure under stable high vasoconstriction", "setting": "[1]; [4]", "value": "rapid and dose dependent decline"},
      {"measurement": "lung weight", "setting": "[1]; [4]", "value": "without affecting"},
      {"measurement": "ventilation pressure", "setting": "[1]; [4]", "value": "without affecting"},
      {"measurement": "prevented (reduced) ceramide-induced apoptosis on human lung cells", "setting": "Human A549 cells", "value": 14.4, "unit": "%"},
      {"measurement": "IL-4 spleen cells; TH2 response (% of control)", "setting": "Interleukin-4 (IL-4)", "value": "0.0 % of control"},
      {"measurement": "inhibited the tube formation of endothelial cells", "setting": "HUVEC", "value": 3, "unit": "%"},
      {"measurement": "TNF-a spleen cells; TH1 response (% of control)", "setting": "[2]", "value": "93.1 % of control"},
      {"measurement": "IFNγ spleen cells; TH1 response (% of control)", "setting": "Interferon-γ (IFN-γ)", "value": "66.1 % of control"},
      {"measurement": "inhibited the migration of human endothelial cells", "setting": "[3]", "value": 21, "unit": "%"},
      {"measurement": "IL-5 spleen cells; TH2 response (% of control)", "setting": "Interleukin-5 (IL-5)", "value": "92.7 % of control"},
      {"measurement": "cGMP levels", "setting": "cGMP", "value": "significantly increased"},
      {"measurement": "IL-2 spleen cells (% of control)", "setting": "Interleukin-2 (IL-2)", "value": "0.0 % of control"}
    ]}
  ]
}
